Measured values published in patent publication US20090239887A1, “Method of resolution and antiviral activity of 1,3-oxathiolane nucleoside enantiomers” (Emory University, priority 1990, published 2009).
Where two headings read alike, the source gives them in different places.

How the values were obtained:
HIV-1 (strain LAV) = assay: microbe, parasite or virus in culture; type: cell-based
From the text: It is often desirable to screen a number of racemic mixtures of nucleosides as a preliminary step to determine which warrant further resolution into enantiomerically enriched components and evaluation of antiviral activity. The ability of nucleosides to inhibit HIV can be measured by various experimental techniques. The technique used herein, and described in detail below, measures the inhibition of viral replication in phytohemagglutinin (PHA) stimulated human peripheral blood mononuclear (PBM) cells infected with HIV-1 (strain LAV). The amount of virus produced is determined by measuring the virus-coded reverse transcriptase enzyme. The amount of enzyme produced is proportional to the amount of virus produced.
A. Three-day-old phytohemagglutinin-stimulated PBM cells (10^6 cells/ml) from hepatitis B and HIV-1 seronegative healthy donors were infected with HIV-1 (strain LAV) at a concentration of about 100 times the 50% tissue culture infectious dose (TICD 50) per ml and cultured in the presence and absence of various concentrations of antiviral compounds.
B. Approximately one hour after infection, the medium, with the compound to be tested (2 times the final concentration in medium) or without compound, was added to the flasks (5 ml; final volume 10 ml). AZT was used as a positive control.
C. The cells were exposed to the virus (about 2×10^5 dpm/ml, as determined by reverse transcriptase assay) and then placed in a CO2 incubator. HIV-1 (strain LAV) was obtained from the Center for Disease Control, Atlanta, Ga. The methods used for culturing the PBM cells, harvesting the virus and determining the reverse transcriptase activity were those described by McDougal et al. (J. Immun. Meth. 76, 171-183, 1985) and Spira et al. (J. Clin. Meth. 25, 97-99, 1987), except that fungizone was not included in the medium (see Schinazi, et al., Antimicrob. Agents Chemother. 32, 1784-1787 (1988); Id., 34:1061-1067 (1990)).
D. On day 6, the cells and supernatant were transferred to a 15 ml tube and centrifuged at about 900 g for 10 minutes. Five ml of supernatant were removed and the virus was concentrated by centrifugation at 40,000 rpm for 30 minutes (Beckman 70.1 Ti rotor). The solubilized virus pellet was processed for determination of the levels of reverse transcriptase. Results are expressed in dpm/ml of sampled supernatant. Virus from smaller volumes of supernatant (1 ml) can also be concentrated by centrifugation prior to solubilization and determination of reverse transcriptase levels.

HIV = settings: cited from earlier work
[1] = test system: AZT-resistant, HIV isolates; settings: isolates from patients treated with AZT for longer than 36 weeks; cited from earlier work
[2] = Cytotoxicity in mitogen stimulated uninfected human PBM cells (trypan blue exclusion); type: cell-based
From the text: The cells were counted after 6 days using a hemacytometer and the trypan blue exclusion method, as described by Schinazi et al., Antimicrobial Agents and Chemotherapy, 22(3), 499 (1982).

hepG2 cells = test system: hepG2 cells
Method: (§1) Studies were undertaken using radiolabeled agent in order to follow the intracellular profiles of the parent drug and metabolites detected within the cell. All studies were conducted in duplicate. […] Cells are exposed to the drug for 2, 6, 12 and 24 hours. At these timepoints, the medium is removed and the cells are washed two times with cold Hank's balanced salt solution. Extraction is performed with addition of 0.2 ml of 60% cold methanol/water and stored overnight at −70° C. The following morning, the suspensions are centrifuged and extractions are repeated two times for 0.5 hours at −70° C. The total supernatants (0.6 ml) are lyophilized to dryness. The residues are resuspended in 250 μl of water and aliquots comprising between 50 and 100 μl are analyzed by HPLC. Quantitation of intracellular parent drug and metabolic derivatives are conducted by HPLC. Because of the potential acid lability of some compounds, a buffer system close to physiological pH is used for the separation of the metabolites.

human PBM cells [3] = settings: 10 μM radiolabeled FTC, 2-24 hours
Method: as §1

Vero cells = settings: African green monkey
CEM cells = settings: human
[4] = Egress of radiolabeled (±)-FTC from human PBM cells; type: in vitro ADME; settings: human PBM cells, after 24 hour pulse with 10 μM; read-out: intracellular half-life (converted)
Method: (§2) Studies are conducted in duplicate. Uninfected cells (2×10^6 ml) are suspended in the appropriate medium supplemented with serum (10 ml per timepoint) and incubated at 37° C. in a 5% CO2 incubator. Radiolabeled FTC concentration is 10 μM. After pulsing the cells with the labeled compound for the desired time, the cells are thoroughly washed and then replenished with fresh medium without the antiviral drugs (0 hr). At 0, 2, 4, 6, 12, 24, and 48 hours (second incubation time), the cells are removed, and immediately extracted with 60% cold methanol/water. The extract is obtained by centrifugation and removal of the cell pellet. The extracts are lyophilized and then stored at −70° C. Prior to analysis, the material is resuspended in 250 μl of HPLC buffer and immediately analyzed.
(§3) Either a Micromeritics or Hewlett-Packard model 1090 PHLC system is used with an anion exchange Partisil 10 SAX column (Whatman, Inc.), at a flow rate of 1 ml/min, 1 kpsi pressure, using uv detection at 262 nm.
(§4) The mobile phase consists of:
(§5) b. 2 mM NaH2PO4/16 mM NaOAc (pH=6.6)
(§6) Separation method: isocratic for 5 min with A, followed by a 15 min linear gradient to 100% B, followed by a 20 min linear gradient to 100% C, followed by 10 min linear gradient to 100% D, followed by 30 min isocratic with 100% D.

human PBM cells [5] = assay: as above; type: in vitro ADME; settings: 48 hours after the removal of the extracellular drug
Method: as §2, §3, §4, §5, §6

HIV RT = target: T1, HIV RT (Human immunodeficiency virus type 1 group M subtype B, UniProt P04585); assay: Affinity of triphosphate against HIV RT; type: biochemical; settings: read-out: affinity (K^1) against HIV RT
T1 construct: (±)-FTC triphosphate against HIV RT is 0.2 μM

[6] = Human immunodeficiency virus 1, PBMC, human PBM cells infected with HIV-1, enantiomers isolated by chiral HPLC (Example 3), read-out: EC50
[7] = Human immunodeficiency virus 1, PBMC, 0.005 μM, read-out: % Inhibition (Corrected)
[8] = Human immunodeficiency virus 1, PBMC, 0.01 μM, read-out: % Inhibition (Corrected)
[9] = Human immunodeficiency virus 1, PBMC, 0.05 μM, read-out: % Inhibition (Corrected)
[10] = Human immunodeficiency virus 1, PBMC, 0.5 μM, read-out: % Inhibition (Corrected)
[11] = Human immunodeficiency virus 1, PBMC, 1 μM, read-out: % Inhibition (Corrected)
[12] = Human immunodeficiency virus 1, PBMC, 5 μM, read-out: % Inhibition (Corrected)
[13] = Human immunodeficiency virus 1, PBMC, 10 μM, read-out: % Inhibition (Corrected)

SMILES	DPM/ml (HIV-1 (strain LAV); 0.005 μM)	DPM/ml (HIV-1 (strain LAV); 0.01 μM)	DPM/ml (HIV-1 (strain LAV); 0.05 μM)	DPM/ml (HIV-1 (strain LAV); 0.1 μM)	DPM/ml (HIV-1 (strain LAV); 0.5 μM)	DPM/ml (HIV-1 (strain LAV); 1 μM)	DPM/ml (HIV-1 (strain LAV); 5 μM)	DPM/ml (HIV-1 (strain LAV); 10 μM)	EC50 (HIV-1 (strain LAV); [6])	inhibition at 0.005 µM (HIV-1 (strain LAV); [7])	inhibition at 0.01 µM (HIV-1 (strain LAV); [8])	inhibition at 0.05 µM (HIV-1 (strain LAV); [9])	inhibition at 0.5 µM (HIV-1 (strain LAV); [10])	inhibition at 1 µM (HIV-1 (strain LAV); [11])	inhibition at 5 µM (HIV-1 (strain LAV); [12])	inhibition at 10 µM (HIV-1 (strain LAV); [13])	IC50 at 6 days [2]	activity against HBV (HBV (hepatitis B virus))	other results
Nc1ccn(C2CSC(CO)O2)c(=O)n1 (racemic) [BCH-189 (±), 2-hydroxymethyl-5-(cytosin-1-yl)-1,3-oxathiolane, reference compound]	62,595 DPM/ml	70,875 DPM/ml	77,650 DPM/ml	33,165 DPM/ml	10,765 DPM/ml	7,745 DPM/ml	6,800 DPM/ml	4,470 DPM/ml	81 nM	38.9%	29.8%	22.3%	96.2%	99.5%	101%	103%	–	–	DPM/ml (HIV-1 (strain LAV); 0.001 μM): 65,170 DPM/ml; inhibition at 0.001 µM (HIV-1 (strain LAV); Human immunodeficiency virus 1, PBMC, 0.001 μM, read-out: % Inhibition (Corrected)): 36.1%; inhibition at 0.1 µM (HIV-1 (strain LAV); Human immunodeficiency virus 1, PBMC, 0.1 μM, read-out: % Inhibition (Corrected)): 71.4%; activity against HIV compared with AZT (HIV): approximately the same activity against HIV as AZT; replication of AZT-resistant HIV isolates [1]: inhibit the replication
Nc1nc(=O)n(C2CSC(CO)O2)cc1F (racemic) [DLS-022, 2-hydroxymethyl-5-(5-fluorocytosin-1-yl)-1,3-oxathiolane]	83,005 DPM/ml	60,465 DPM/ml	34,120 DPM/ml	14,160 DPM/ml	18,095 DPM/ml	7,555 DPM/ml	7,940 DPM/ml	5,810 DPM/ml	18 nM	16.3%	41.3%	70.4%	88.1%	99.7%	99.3%	102%	> 100000 nM	effective	DPM/ml (HIV-1 (strain LAV); 0.0001 μM): 73,755 DPM/ml; inhibition at 0.0001 µM (HIV-1 (strain LAV); Human immunodeficiency virus 1, PBMC, 0.0001 μM, read-out: % Inhibition (Corrected)): 26.6%; EC50 (HIV-1 (strain LAV); Human immunodeficiency virus 1, PBMC, human PBM cells infected with HIV-1 (strain LAV), Table 3, read-out: Antiviral EC50): 11 nM; EC50 (HIV-1 (strain LAV); Human immunodeficiency virus 1, PBMC, human PBM cells infected with HIV-1, enantiomers resolved by method of Example 2 (FIG. 5), read-out: EC50): 17 nM; metabolism to triphosphate in human liver cells (hepG2 cells; hepG2 cells): metabolize a large percentage; uptake by hepG2 cells (hepG2 cells; human liver cells): taken up by hepG2 cells in large amounts; uptake in human lymphocytes (human PBM cells [3]): readily taken up; toxicity (Vero cells): > 100 µM; toxicity (CEM cells): > 100 µM
Nc1nc(=O)n(C2CSC(COP(=O)(O)OP(=O)(O)OP(=O)(O)O)O2)cc1F (racemic) [FTC-triphosphate]	–	–	–	–	–	–	–	–	–	–	–	–	–	–	–	–	–	–	half-life at 10 μM [4]: ~12 h; intracellular concentration (human PBM cells [5]): 1 to 5 µM; Ki (HIV RT): 200 nM
Nc1nc(=O)n(C2CSC(CO)O2)cc1F (single isomer, unassigned; (-)) [DLS-058 (−), (−)-2-hydroxymethyl-5-(5-fluorocytosin-1-yl)-1,3-oxathiolane]	–	–	–	–	–	–	–	–	–	–	–	–	–	–	–	–	> 100000 nM	significant activity	% Inhibition (Corrected) (HIV-1 (strain LAV); 0.001 μM, listed as FTC (−)): 23.8%; DPM/ml (HIV-1 (strain LAV); 0.001 μM, listed as FTC (−)): 76,275 DPM/ml; % Inhibition (Corrected) (HIV-1 (strain LAV); 0.005 μM, listed as FTC (−)): 43.3%; DPM/ml (HIV-1 (strain LAV); 0.005 μM, listed as FTC (−)): 58,590 DPM/ml; % Inhibition (Corrected) (HIV-1 (strain LAV); 0.01 μM, listed as FTC (−)): 24.8%; DPM/ml (HIV-1 (strain LAV); 0.01 μM, listed as FTC (−)): 75,350 DPM/ml; % Inhibition (Corrected) (HIV-1 (strain LAV); 0.05 μM, listed as FTC (−)): 76.2%; DPM/ml (HIV-1 (strain LAV); 0.05 μM, listed as FTC (−)): 28,890 DPM/ml; % Inhibition (Corrected) (HIV-1 (strain LAV); 0.1 μM, listed as FTC (−)): 93.5%; DPM/ml (HIV-1 (strain LAV); 0.1 μM, listed as FTC (−)): 13,175 DPM/ml; % Inhibition (Corrected) (HIV-1 (strain LAV); 0.5 μM, listed as FTC (−)): 97.6%; DPM/ml (HIV-1 (strain LAV); 0.5 μM, listed as FTC (−)): 9,485 DPM/ml; EC50 (HIV-1 (strain LAV); summary range, read-out: EC50 against HIV): 7.7 to 20 nM
